Reference: PubChem BioAssay (NCI)
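Protocol summary: plate cells (96-well), add compound at 5 concentrations, incubate 48 h, interpolate endpoints linearly. GI50 marks 50% less growth. TGI marks complete inhibition of growth.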

Legend:
Assay in all cases: inhibition of tumour cell growth, NCI panel, 48 h
OVCAR-5 ovarian = tested on: OVCAR-5 ovarian
HT29 colon = tested on: HT29 colon
NCI-H226 lung = tested on: NCI-H226 lung
SW-620 colon = tested on: SW-620 colon
SK-OV-3 ovarian = tested on: SK-OV-3 ovarian
RXF 393 renal = tested on: RXF 393 renal
SF-268 CNS = tested on: SF-268 CNS
RPMI-8226 leukemia = tested on: RPMI-8226 leukemia
A498 renal = tested on: A498 renal
UACC-62 melanoma = tested on: UACC-62 melanoma
HOP-62 NSCLC = tested on: HOP-62 NSCLC
SR leukemia = tested on: SR leukemia
MALME-3M melanoma = tested on: MALME-3M melanoma
DU-145 prostate = tested on: DU-145 prostate
UACC-257 melanoma = tested on: UACC-257 melanoma
T-47D breast = tested on: T-47D breast
KM12 colon = tested on: KM12 colon
U251 CNS = tested on: U251 CNS
SF-295 CNS = tested on: SF-295 CNS
MDA-MB-435 = tested on: MDA-MB-435
M14 melanoma = tested on: M14 melanoma
NCI-H460 lung = tested on: NCI-H460 lung
786-0 renal = tested on: 786-0 renal
OVCAR-3 ovarian = tested on: OVCAR-3 ovarian
SF-539 CNS = tested on: SF-539 CNS
OVCAR-8 ovarian = tested on: OVCAR-8 ovarian
SK-MEL-2 melanoma = tested on: SK-MEL-2 melanoma
NCI-H23 lung = tested on: NCI-H23 lung
COLO 205 colon = tested on: COLO 205 colon
SNB-75 CNS = tested on: SNB-75 CNS
HCC-2998 colon = tested on: HCC-2998 colon
UO-31 renal = tested on: UO-31 renal
IGROV1 ovarian = tested on: IGROV1 ovarian
SNB-19 CNS = tested on: SNB-19 CNS
HCT-116 colon = tested on: HCT-116 colon
CAKI-1 renal = tested on: CAKI-1 renal
A549 NSCLC = tested on: A549 NSCLC
HOP-92 NSCLC = tested on: HOP-92 NSCLC
NCI/ADR-RES ovarian = tested on: NCI/ADR-RES ovarian
MDA-MB-231 breast = tested on: MDA-MB-231 breast
SN12C renal = tested on: SN12C renal
OVCAR-4 ovarian = tested on: OVCAR-4 ovarian
MCF7 breast = tested on: MCF7 breast
BT-549 breast = tested on: BT-549 breast
MOLT-4 leukemia = tested on: MOLT-4 leukemia
K-562 leukemia = tested on: K-562 leukemia
HS 578T breast = tested on: HS 578T breast
TK-10 renal = tested on: TK-10 renal
ACHN renal = tested on: ACHN renal
SK-MEL-28 melanoma = tested on: SK-MEL-28 melanoma
HL-60(TB) leukemia = tested on: HL-60(TB) leukemia
PC-3 prostate = tested on: PC-3 prostate
SK-MEL-5 melanoma = tested on: SK-MEL-5 melanoma
CCRF-CEM leukemia = tested on: CCRF-CEM leukemia

C[C@]12CC[C@@H]3c4ccc(O)cc4CC[C@H]3[C@@H]1CC[C@@H]2NS(=O)(=O)c1ccc(Cl)cc1
GI50 (OVCAR-5 ovarian): 6.02 µM | TGI (OVCAR-5 ovarian): 20.5 µM | GI50 (HT29 colon): 2.92 µM | TGI (HT29 colon): 8.19 µM | GI50 (NCI-H226 lung): 6.43 µM | TGI (NCI-H226 lung): 21.4 µM | GI50 (SW-620 colon): 3.95 µM | TGI (SW-620 colon): 15.9 µM | GI50 (SK-OV-3 ovarian): 8.79 µM | TGI (SK-OV-3 ovarian): 22.5 µM | GI50 (RXF 393 renal): 3.02 µM | TGI (RXF 393 renal): 8.89 µM | GI50 (SF-268 CNS): 5.69 µM | TGI (SF-268 CNS): 19.9 µM | GI50 (RPMI-8226 leukemia): 3.92 µM | TGI (RPMI-8226 leukemia): 23.5 µM | GI50 (A498 renal): 2.52 µM | TGI (A498 renal): 9.36 µM | GI50 (UACC-62 melanoma): 4.46 µM | TGI (UACC-62 melanoma): 17.5 µM | GI50 (HOP-62 NSCLC): 10.2 µM | TGI (HOP-62 NSCLC): 24.4 µM | GI50 (SR leukemia): 4.47 µM | TGI (SR leukemia): 50.8 µM | GI50 (MALME-3M melanoma): 3.25 µM | TGI (MALME-3M melanoma): 10.7 µM | GI50 (DU-145 prostate): 7.53 µM | TGI (DU-145 prostate): 21.6 µM | GI50 (UACC-257 melanoma): 8.5 µM | TGI (UACC-257 melanoma): 23.5 µM | GI50 (T-47D breast): 3.66 µM | TGI (T-47D breast): 15.3 µM | GI50 (KM12 colon): 2.86 µM | TGI (KM12 colon): 9.51 µM | GI50 (U251 CNS): 5.49 µM | TGI (U251 CNS): 18.5 µM | GI50 (SF-295 CNS): 1.39 µM | TGI (SF-295 CNS): 2.72 µM | GI50 (MDA-MB-435): 1.84 µM | TGI (MDA-MB-435): 3.93 µM | GI50 (M14 melanoma): 9.13 µM | TGI (M14 melanoma): 27.1 µM | GI50 (NCI-H460 lung): 2.6 µM | TGI (NCI-H460 lung): 6.66 µM | GI50 (786-0 renal): 5.19 µM | TGI (786-0 renal): 19.7 µM | GI50 (OVCAR-3 ovarian): 3.75 µM | TGI (OVCAR-3 ovarian): 12.8 µM | GI50 (SF-539 CNS): 5.36 µM | TGI (SF-539 CNS): 19.1 µM | GI50 (OVCAR-8 ovarian): 4.86 µM | TGI (OVCAR-8 ovarian): 20.6 µM | GI50 (SK-MEL-2 melanoma): 5.31 µM | TGI (SK-MEL-2 melanoma): 17.7 µM | GI50 (NCI-H23 lung): 5.67 µM | TGI (NCI-H23 lung): 23.1 µM | GI50 (COLO 205 colon): 2.17 µM | TGI (COLO 205 colon): 4.09 µM | GI50 (SNB-75 CNS): 2.07 µM | TGI (SNB-75 CNS): 9.17 µM | GI50 (HCC-2998 colon): 7.49 µM | TGI (HCC-2998 colon): 23.8 µM | GI50 (UO-31 renal): 2.59 µM | TGI (UO-31 renal): 11.9 µM | GI50 (IGROV1 ovarian): 5.74 µM | TGI (IGROV1 ovarian): 18.4 µM | GI50 (SNB-19 CNS): 11 µM | TGI (SNB-19 CNS): 24 µM | GI50 (HCT-116 colon): 4.03 µM | TGI (HCT-116 colon): 21.7 µM | GI50 (CAKI-1 renal): 3.3 µM | TGI (CAKI-1 renal): 10.4 µM | GI50 (A549 NSCLC): 3.98 µM | TGI (A549 NSCLC): 15.3 µM | GI50 (HOP-92 NSCLC): 2.68 µM | TGI (HOP-92 NSCLC): 10.7 µM | GI50 (NCI/ADR-RES ovarian): 4 µM | TGI (NCI/ADR-RES ovarian): 16.8 µM | GI50 (MDA-MB-231 breast): 3.6 µM | TGI (MDA-MB-231 breast): 14.2 µM | GI50 (SN12C renal): 3.02 µM | TGI (SN12C renal): 12.3 µM | GI50 (OVCAR-4 ovarian): 1.99 µM | TGI (OVCAR-4 ovarian): 8.65 µM | GI50 (MCF7 breast): 1.91 µM | TGI (MCF7 breast): 4.86 µM | GI50 (BT-549 breast): 5.65 µM | TGI (BT-549 breast): 22.3 µM | GI50 (MOLT-4 leukemia): 3.46 µM | TGI (MOLT-4 leukemia): 24.4 µM | GI50 (K-562 leukemia): 3.93 µM | TGI (K-562 leukemia): 31.7 µM | GI50 (HS 578T breast): 2.58 µM | TGI (HS 578T breast): 14.5 µM | GI50 (TK-10 renal): 5.46 µM | TGI (TK-10 renal): 17.6 µM | GI50 (ACHN renal): 3.5 µM | TGI (ACHN renal): 12.9 µM | GI50 (SK-MEL-28 melanoma): 7.45 µM | TGI (SK-MEL-28 melanoma): 22.3 µM | GI50 (HL-60(TB) leukemia): 5.14 µM | TGI (HL-60(TB) leukemia): 26.6 µM | GI50 (PC-3 prostate): 2.86 µM | TGI (PC-3 prostate): 13.5 µM | GI50 (SK-MEL-5 melanoma): 2.4 µM | TGI (SK-MEL-5 melanoma): 6.71 µM | GI50 (CCRF-CEM leukemia): 3.5 µM | TGI (CCRF-CEM leukemia): 37.6 µM
